Source: patent publication US7691874B2, “Neuroprotective properties of dextrorotatory morphinans” (priority 2004, dated 2010)
Marks after values point to notes of the source that are not given here.

Key:
[1] = test system: kainate or maximal electric shock; conditions: kainate (24) or maximal electric shock (27); cited from earlier work
[2] = test system: NMDA receptor associated PCP sites; conditions: cited from earlier work
MA-treated mice [3] = assay: MA-induced behavioural sensitization; conditions: morphinan 20 mg/kg i.p., last 3 days of wash-out (Ex. 3.12)
Description: Morphinans (20 mg/kg, i.p.) were administered last 3 days of wash-out period.

LPS-treated mice [4] = assay: Hypokinesia induced by intrastriatal LPS; conditions: 12 or 24 mg/kg, twice before bilateral intrastriatal LPS
MA-treated mice [5] = assay: Methamphetamine (MA)-induced hyperthermia; type: in vivo; conditions: 24 mg/kg; MA 7.5 mg/kg i.p. x 4 at 2-h intervals
Description: Rectal temperature was recorded at 40 min after each MA treatment. […] Mice were sacrificed at 3 days after final MA injection.
FIGS. 10A-10B show effect of morphinans on the methamphetamine (MA)-induced hyperthermia. Mice received i.p. injections of MA (four injections of 7.5 mg/kg each) at 2-h intervals under the ambient temperature of 22.0±0.5° C. Temperatures were recorded at 40 min after each MA treatment (Arrow=MA injection).

MA-treated mice [6] = assay: Striatal dopamine and metabolites in MA-treated mice; type: in vivo; conditions: for Concentration DA in the striatum: 3 days after final MA
Text: Mice were sacrificed at 3 days after final MA injection.

MA-treated mice [7] = assay: MA-induced FRA-IR in the striatum; conditions: morphinan 20 mg/kg i.p.; MA 1 mg/kg i.p./day x 7
Description: Therefore, brains were removed and used for immunocytochemical analysis at 18 h after the final cocaine/MA treatment. The coronal sections containing striatum were processed for FRA immunocytochemistry. […] The FRA antibody was used at 1:2,000 as the optimal dilution. The FRA-IR in the striatum was calculated using image analysis systems with a polaroid digital microscopic camera (Optimas version 6.2).

C57 BL/6 mice [8] = assay: Locomotor activity and locomotor pattern following repeated administration of morphinans or PCP; type: in vivo
σ1 receptors = σ1 receptors (Homo sapiens, UniProt Q99720); conditions: cited from earlier work
σ1 receptors, sequence (Q99720 whole entry): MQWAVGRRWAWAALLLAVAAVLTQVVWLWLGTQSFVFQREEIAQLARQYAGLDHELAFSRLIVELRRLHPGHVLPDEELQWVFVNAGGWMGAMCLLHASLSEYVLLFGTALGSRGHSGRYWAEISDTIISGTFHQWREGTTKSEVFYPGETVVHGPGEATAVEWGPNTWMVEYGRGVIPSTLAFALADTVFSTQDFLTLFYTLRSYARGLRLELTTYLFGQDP

MPTP-treated mice [9] = assay: Hypokinesia (reduction in locomotor activity) induced by MPTP; type: in vivo; conditions: 12 or 24 mg/kg i.p. 30 min before MPTP (20 mg/kg/day x 7), last three days
cocaine-treated mice [10] = assay: Cocaine-induced Fos-related antigen-immunoreactivity (FRA-IR) in the striatum; conditions: cocaine 5 mg/kg; morphinan 20 mg/kg i.p.
LPS-treated mice [11] = assay: Striatal dopamine and metabolites in LPS-treated mice; type: in vivo; conditions: for Concentration DA in the striatum: 3 weeks after LPS
Text: Control animals received striatal injection with PBS.
Mice were sacrificed at 3 weeks after LPS treatment.

MPTP-treated mice [12] = assay: Striatal dopamine and metabolites (HPLC-EC) in MPTP-treated mice; conditions: for Concentration DA in the striatum: mean ± S.E.M., 8 animals
Description: Each morphinan was administered 30 min prior to every injection of MPTP for last three days (from day 4th to day 7th). Animals were sacrificed 24 h after the last MPTP treatment.
Brains were rapidly removed and cut into 1 mm coronal sections on ice. The striatum was punched using a fine pasteur pipette (3, 21, 22), and stored at −70° C. DA and its metabolites, 3,4-dihydroxyphenylacetic acid (DOPAC) and homovanilic acid (HVA) were measured by HPLC-eletrochemical detection (3, 21, 22). Briefly, the striatum was homogenized in 0.2 M perchloric acid containing 3,4-dihydroxybenzylamine as an internal standard (10 mg wet weight of tissue per ml). The homogenate was centrifuged and a 20-μl aliquot of the supernatant was injected into the HPLC equipped with an ODS-C18 column. The mobile phase was comprised of 26 ml of acetonitrile, 21 ml of tetrahydrofuran and 960 ml of 0.15 M monochloroacetic acid (pH 3.0) containing 50 mg/l of EDTA and 200 mg/l of sodium octyl sulfate. The amount of DA, DOPAC and HVA were determined by comparison of peak height ratio of tissue sample with standards, and were expressed in nanograms per 100 mg of wet weight of tissue.
Each morphinan was administered 30 min before every injection of MPTP for last three days. Animals were sacrificed at 24 h after the last MPTP injection.

MA-treated mice [13] = assay: Hypokinesia induced by MA; type: in vivo; conditions: 12 and 24 mg/kg; 3 days after final MA
MA-treated mice [14] = assay: Nigral TH-IR in MA-treated mice; conditions: 24 mg/kg i.p.
cocaine-treated mice [15] = assay: Cocaine-induced hyperlocomotion; type: in vivo
Description: FIGS. 34A-34B show effect of morphinans on the cocaine-induced hyperactivity in the mice. Morphinans (15 and 30 mg/kg, i.p.) were administered 30 minutes prior to cocaine (5 and 20 mg/kg, i.p.). Central activity means relatively non-specific locomotor activity in the center of the box. Marginal activity means circling behaviors. All treatments were performed for 7 days.
FIGS. 35A-35D show effect of dimemorfan (DF) on cocaine-induced hyperactivity in the mice. DF (20 mg/kg, i.p.) was administered 30 minutes prior to cocaine (5 and 20 mg/kg, i.p.). All treatments were performed for 7 days.

C57 BL/6 mice [16] = assay: Conditioned place preference (psychological dependence) following repeated administration of morphinans or PCP; type: in vivo; conditions: 20 or 40 mg/kg i.p. (PCP 2.5 or 5 mg/kg); vs saline
Description: On day 14, the guillotine doors were raised. […] Data were analyzed between 0900 and 1700 hr.

MA-treated mice [17] = assay: MA-induced hyperlocomotion; type: in vivo; conditions: morphinan 20 mg/kg i.p. 30 min before MA 1 mg/kg i.p./day x 7
Description: FIGS. 39A-39D show effect of morphinans on the MA-induced hyperactivity in the mice. Each morphinan (20 mg/kg, i.p.) was administered 30 minutes prior to MA (1 mg/kg, i.p.). All treatments were performed for 7 days.

Cc1ccc2c(c1)[C@@]13CCCC[C@H]1[C@@H](C2)N(C)CC3 [DF, 3-methyl-17-methyl-morphinan]
anticonvulsant effect [1]: exhibited anticonvulsant effects
affinity for NMDA receptor associated PCP sites [2]: very low affinities
effect on MA-induced behavioural sensitization (MA-treated mice [3]): significantly reduced
effect on LPS-induced decrease in locomotor activity (LPS-treated mice [4]): neither AM nor DF were effective in attenuating locomotor hypoactivity
effect on MA-induced hyperthermia (rectal temperature) (MA-treated mice [5]): attenuated by all morphinans used in this study
effect on MA-induced reductions in striatal DA, DOPAC and HVA (MA-treated mice [6]; 24 mg/kg pretreatment): significantly protected
Concentration DOPAC in the striatum (MA-treated mice [6]; morphinan 12 (mg/kg) + MA): 79 ± 11 ng/100 mg wet tissue
Concentration HVA in the striatum (MA-treated mice [6]; morphinan 12 (mg/kg) + MA): 79 ± 7 ng/100 mg wet tissue
Concentration DA in the striatum (MA-treated mice [6]; morphinan 12 (mg/kg) + MA, mean ± S.E.M., 8 animals): 603 ± 65 ng/100 mg wet tissue
Concentration DOPAC in the striatum (MA-treated mice [6]; morphinan 24 (mg/kg) + MA): 94 ± 9^b ng/100 mg wet tissue
Concentration HVA in the striatum (MA-treated mice [6]; morphinan 24 (mg/kg) + MA): 92 ± 10^b ng/100 mg wet tissue
Concentration DA in the striatum (MA-treated mice [6]; morphinan 24 (mg/kg) + MA): 762 ± 81^b ng/100 mg wet tissue
effect on MA-induced FRA-IR in the striatum (MA-treated mice [7]): apparently attenuated
locomotor pattern (tracings) (C57 BL/6 mice [8]; 40 mg/kg i.p. (PCP 5 mg/kg), FIG. 3): did not produce significant marginal activity
marginal activity (circling behaviour; absolute turn angular) (C57 BL/6 mice [8]; 20 or 40 mg/kg i.p./day x 7 (PCP 2.5 or 5 mg/kg), 3-min period, vs saline): did not significantly affect marginal activity
locomotor activity (total distance moved) (C57 BL/6 mice [8]; 20 or 40 mg/kg i.p./day x 7 days, 30 min after final treatment, vs saline): comparable to that with saline
affinity for σ1 receptors (σ1 receptors): high affinity ligands
effect on MPTP-induced reduction in locomotor activity (MPTP-treated mice [9]): neither AM nor DF affected significantly the locomotor hypoactivity
effect on cocaine-induced FRA-IR in the striatum (cocaine-treated mice [10]): apparently attenuated
effect on LPS-induced reductions in striatal DA, DOPAC and HVA (LPS-treated mice [11]; 24 mg/kg pretreatment): did not alter LPS-induced reductions in DA, DOPAC and HVA levels
Concentration DOPAC in the striatum (LPS-treated mice [11]; morphinan 12 (mg/kg) + LPS): 54 ± 7 ng/100 mg wet tissue
Concentration HVA in the striatum (LPS-treated mice [11]; morphinan 12 (mg/kg) + LPS): 62 ± 8 ng/100 mg wet tissue
Concentration DA in the striatum (LPS-treated mice [11]; morphinan 12 (mg/kg) + LPS, mean ± S.E.M., 8 animals): 635 ± 65 ng/100 mg wet tissue
Concentration DOPAC in the striatum (LPS-treated mice [11]; morphinan 24 (mg/kg) + LPS): 59 ± 8 ng/100 mg wet tissue
Concentration HVA in the striatum (LPS-treated mice [11]; morphinan 24 (mg/kg) + LPS): 63 ± 7 ng/100 mg wet tissue
Concentration DA in the striatum (LPS-treated mice [11]; morphinan 24 (mg/kg) + LPS): 459 ± 58 ng/100 mg wet tissue
effect on MPTP-induced reductions in striatal DA, DOPAC and HVA (MPTP-treated mice [12]; 24 mg/kg pretreatment): did not alter reductions in DA, DOPAC and HVA
Concentration DOPAC in the striatum (MPTP-treated mice [12]; morphinan 12 (mg/kg) + MPTP): 44 ± 6 ng/100 mg wet tissue
Concentration HVA in the striatum (MPTP-treated mice [12]; morphinan 12 (mg/kg) + MPTP): 62 ± 7 ng/100 mg wet tissue
Concentration DA in the striatum (MPTP-treated mice [12]; morphinan 12 (mg/kg) + MPTP): 403 ± 55 ng/100 mg wet tissue
Concentration DOPAC in the striatum (MPTP-treated mice [12]; morphinan 24 (mg/kg) + MPTP): 52 ± 7 ng/100 mg wet tissue
Concentration HVA in the striatum (MPTP-treated mice [12]; morphinan 24 (mg/kg) + MPTP): 68 ± 6 ng/100 mg wet tissue
Concentration DA in the striatum (MPTP-treated mice [12]; morphinan 24 (mg/kg) + MPTP): 397 ± 55 ng/100 mg wet tissue
effect on MA-induced reduction in locomotor activity (MA-treated mice [13]): significantly prevented MA-induced reduction in locomotor activity
effect on MA-induced decrease in nigral TH-positive cells (MA-treated mice [14]): significantly attenuated the decrease in TH-positive cells
effect on locomotor activity induced by low dose of cocaine (cocaine-treated mice [15]; cocaine 5 mg/kg i.p. x 7 days, morphinan 15 or 30 mg/kg (DF 20 mg/kg) i.p.): consistently attenuated locomotor activity induced by a low dose of cocaine
effect on hyperactivity induced by high dose of cocaine (cocaine-treated mice [15]; cocaine 20 mg/kg i.p. x 7 days, morphinan 15 or 30 mg/kg i.p. 30 min before): not uniform
conditioned place preference (CPP) (C57 BL/6 mice [16]): almost no CPP effects
effect on MA-induced hyperlocomotion (MA-treated mice [17]): consistently effective in attenuating hyperlocomotion induced by MA
